Measured values published in US10988456B2, “O-aminoheteroaryl alkynyl-containing compound, preparation method therefor, and use thereof” (SHANGHAI INSTITUTE OF MATERIA MEDICA, CHINESE ACADEMY OF …, priority 2017, dated 2021).

Experiments:
KDR = KDR (Homo sapiens, UniProt P35968); test: Inhibition of receptor tyrosine kinase activity at molecular level (ELISA, Poly(Glu,Tyr)4:1 substrate phosphorylation); format: biochemical; settings: 10 nM compound; average of two independent experiments
RET = RET (Homo sapiens, UniProt P07949); test: as above; format: biochemical
Summary of the method: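 Poly(Glu,Tyr)4:1-coated plates (20 μg/mL) were incubated with recombinant kinase, compound and 5 μM ATP (final) in HEPES pH 7.4 buffer with MgCl2/MnCl2/Na3VO4/DTT for 1 h at 37 °C. Phosphotyrosine was detected with PY99 and HRP anti-mouse IgG plus OPD at 490 nm. IC50 came from four-parameter regression.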

FGFR1 = FGFR1 (Homo sapiens, UniProt P11362); test: as above; format: biochemical; settings: 10 nM compound; average of two independent experiments
[1] = Pharmacokinetic experiment in rat (IV and PO, plasma LC-MS/MS); settings: SD rats
Description: Ponatinib (AP24534) was administered intravenously (IV) and orally (PO) to SD rats. Blood samples were taken at different time points. LC-MS/MS was used to determine the concentration of compound in the plasma of rats after administration of the test compound, and the relevant pharmacokinetic parameters were calculated to examine oral bioavailability and pharmacokinetic properties of the compound in rats.
Compound HuFGFR267 was administered intravenously and orally to SD rats. Blood samples were taken at different time points. LC-MS/MS was used to determine the concentration of compound in the plasma of rats after administration of the test compound, and the relevant pharmacokinetic parameters were calculated to examine oral bioavailability and pharmacokinetic properties of the compound in rats.

Ret (V804M) = biological target: T1, Ret (V804M) (Homo sapiens, UniProt P07949, V804M); test: Inhibition of RET-related mutant enzyme activity (ELISA); format: biochemical; settings: measured twice, Mean ± SD
T1 construct: purchased
Description: Enzyme reaction substrate Poly(Glu, Tyr)4:1 was diluted with potassium-free PBS (10 mM sodium phosphate buffer, 150 mM NaCl, pH 7.2-7.4) to 20 μg/mL. The enzyme label plate was coated with 125 μL/well. The reaction was conducted under 37° C. for 12-16 hours. After the liquid was removed from the wells, the plate was washed three times with 200 μL/well of T-PBS (PBS containing 0.1% Tween-20), each for 5 minutes. The enzyme plate was dried in 37° C. dryer for 1-2 hours.
50 μL ATP solution diluted with buffer (50 mM HEPES pH 7.4, 50 mM MgCl2, 0.5 mM MnCl2, 0.2 mM Na3VO4, 1 mM DTT) to a final concentration of 5 μM was added into each well. The compound was diluted with DMSO to a suitable concentration (1 μL/well) or the well contained the corresponding concentration of DMSO (negative control well) Then various kinase recombinant proteins diluted with 49 μL of reaction buffer was added to initiate the reaction. Each experiment required duplicate enzyme-free control well. The reaction was carried out for 1 hour on a 37° C. Shaker (100 rpm). […] The reaction was quenched with 2M H2SO4 (50 μL/well), and read at 490 nm using a tunable microplate reader SPECTRA MAX 190.
The inhibition ratio of the sample was determined by the following formula: […]
The IC50 values were obtained via four-parameter regression analysis using the software supplied with the microplate reader. […]

[2] = system: RET signaling pathway in TT and BaF3/CCDC6-RET cells; test: Western blotting of RET signaling pathway activation in cells; format: cell-based; settings: compounds 2 hours; P-RET, P-AKT, P-ErK
Description: Detecting the Effect of Compounds on the Activation of RET Signaling Pathway in TT and BaF3/CCDC6-RET Cells by Western Blotting
The cells were seeded into a 12-well plate (250,000/well). After incubation for 18-24 hours, the compounds were added to react for 2 hours, and then the cells were collected and firstly washed once with cold PBS (containing 1 mmol sodium vanadate); then 1×SDS gel loading buffer (50 mmol Tris-HCl (pH 6.8), 100 mmol DTT, 2% SDS, 10% glycerol, 1 mmol sodium vanadate, 0.1% bromophenol blue) was added to lyse cells. The cell lysate was heated in a boiling water bath for 10 minutes, and then centrifuged at 12,000 rpm for 10 minutes at 4° C.
The supernatant was taken for SDS-PAGE electrophoresis (Mini-PROTEAN 3 Cell, Bio-Rad, Hercules, Calif., USA). After electrophoresis, the proteins were transferred to a nitrocellulose membrane using a semi-dry electrotransfer system (Amersham Life Sciences, Arlington Heights, Ill., USA). The nitrocellulose membrane was placed in a blocking solution (5% skim milk powder diluted in TBS containing 1 mmol sodium vanadate) for 2 hours at room temperature, and then the membrane was placed and reacted with a primary antibody at 4° C. overnight. […] The membrane was placed in a secondary antibody solution and reacted for 1-2 hours at room temperature. After the membrane was washed three times as above, the membrane was stained using ECL (Picece, Rockford, Ill.) reagent was used for staining and then developed.

RET, sequence (P07949 29-1114): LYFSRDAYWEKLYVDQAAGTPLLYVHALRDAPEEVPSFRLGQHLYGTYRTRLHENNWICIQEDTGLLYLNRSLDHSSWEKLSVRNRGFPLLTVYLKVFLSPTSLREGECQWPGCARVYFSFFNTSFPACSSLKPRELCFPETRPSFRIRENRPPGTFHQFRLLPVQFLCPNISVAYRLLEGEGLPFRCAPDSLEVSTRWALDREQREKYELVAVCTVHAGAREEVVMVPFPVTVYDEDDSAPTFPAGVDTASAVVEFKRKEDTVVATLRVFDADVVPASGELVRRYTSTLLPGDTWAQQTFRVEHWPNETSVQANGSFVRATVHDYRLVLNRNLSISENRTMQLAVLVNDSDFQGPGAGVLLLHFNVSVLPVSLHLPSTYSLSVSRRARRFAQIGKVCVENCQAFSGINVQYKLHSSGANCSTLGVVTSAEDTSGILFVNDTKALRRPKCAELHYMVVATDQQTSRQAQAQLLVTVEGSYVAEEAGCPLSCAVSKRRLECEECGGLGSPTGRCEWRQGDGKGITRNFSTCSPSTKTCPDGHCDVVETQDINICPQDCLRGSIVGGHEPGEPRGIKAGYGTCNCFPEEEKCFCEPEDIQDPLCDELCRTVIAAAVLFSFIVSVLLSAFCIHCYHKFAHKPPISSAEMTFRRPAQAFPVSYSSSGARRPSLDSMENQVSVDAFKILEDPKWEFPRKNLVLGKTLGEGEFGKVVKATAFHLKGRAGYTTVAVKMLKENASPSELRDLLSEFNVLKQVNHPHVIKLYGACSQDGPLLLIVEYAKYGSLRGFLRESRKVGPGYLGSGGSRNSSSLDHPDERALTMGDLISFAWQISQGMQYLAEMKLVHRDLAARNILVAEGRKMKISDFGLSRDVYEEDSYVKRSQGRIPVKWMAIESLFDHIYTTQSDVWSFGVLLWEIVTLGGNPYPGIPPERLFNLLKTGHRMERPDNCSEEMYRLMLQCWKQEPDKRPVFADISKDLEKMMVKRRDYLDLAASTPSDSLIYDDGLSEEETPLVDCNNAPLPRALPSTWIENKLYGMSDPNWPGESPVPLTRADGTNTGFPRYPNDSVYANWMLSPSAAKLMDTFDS
FGFR1, sequence (P11362 22-822): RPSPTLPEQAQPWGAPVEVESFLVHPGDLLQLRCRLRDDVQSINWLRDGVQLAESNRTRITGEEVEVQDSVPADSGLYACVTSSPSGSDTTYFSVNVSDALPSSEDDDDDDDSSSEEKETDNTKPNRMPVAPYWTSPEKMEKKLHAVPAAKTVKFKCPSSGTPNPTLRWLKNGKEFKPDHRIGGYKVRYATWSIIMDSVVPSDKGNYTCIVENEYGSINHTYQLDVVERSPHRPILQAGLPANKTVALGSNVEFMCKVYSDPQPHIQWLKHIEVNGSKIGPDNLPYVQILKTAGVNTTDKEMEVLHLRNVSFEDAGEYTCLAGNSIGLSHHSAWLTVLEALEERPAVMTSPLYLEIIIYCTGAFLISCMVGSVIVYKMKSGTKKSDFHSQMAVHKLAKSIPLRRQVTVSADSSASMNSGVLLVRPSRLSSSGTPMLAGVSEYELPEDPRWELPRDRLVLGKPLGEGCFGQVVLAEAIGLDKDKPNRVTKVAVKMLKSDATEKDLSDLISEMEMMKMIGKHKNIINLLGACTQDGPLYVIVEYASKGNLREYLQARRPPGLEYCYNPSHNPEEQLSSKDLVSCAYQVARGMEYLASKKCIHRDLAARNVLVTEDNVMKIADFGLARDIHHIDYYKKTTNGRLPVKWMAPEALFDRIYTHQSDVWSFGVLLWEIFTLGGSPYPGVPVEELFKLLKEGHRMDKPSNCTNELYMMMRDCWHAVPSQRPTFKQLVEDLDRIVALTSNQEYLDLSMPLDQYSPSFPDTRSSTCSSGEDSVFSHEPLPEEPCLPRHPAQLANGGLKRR
T1 sequence (P07949 29-1114 V804M): as the sequence (P07949 29-1114) above, with V776M counted along it
KDR, sequence (P35968 20-1356): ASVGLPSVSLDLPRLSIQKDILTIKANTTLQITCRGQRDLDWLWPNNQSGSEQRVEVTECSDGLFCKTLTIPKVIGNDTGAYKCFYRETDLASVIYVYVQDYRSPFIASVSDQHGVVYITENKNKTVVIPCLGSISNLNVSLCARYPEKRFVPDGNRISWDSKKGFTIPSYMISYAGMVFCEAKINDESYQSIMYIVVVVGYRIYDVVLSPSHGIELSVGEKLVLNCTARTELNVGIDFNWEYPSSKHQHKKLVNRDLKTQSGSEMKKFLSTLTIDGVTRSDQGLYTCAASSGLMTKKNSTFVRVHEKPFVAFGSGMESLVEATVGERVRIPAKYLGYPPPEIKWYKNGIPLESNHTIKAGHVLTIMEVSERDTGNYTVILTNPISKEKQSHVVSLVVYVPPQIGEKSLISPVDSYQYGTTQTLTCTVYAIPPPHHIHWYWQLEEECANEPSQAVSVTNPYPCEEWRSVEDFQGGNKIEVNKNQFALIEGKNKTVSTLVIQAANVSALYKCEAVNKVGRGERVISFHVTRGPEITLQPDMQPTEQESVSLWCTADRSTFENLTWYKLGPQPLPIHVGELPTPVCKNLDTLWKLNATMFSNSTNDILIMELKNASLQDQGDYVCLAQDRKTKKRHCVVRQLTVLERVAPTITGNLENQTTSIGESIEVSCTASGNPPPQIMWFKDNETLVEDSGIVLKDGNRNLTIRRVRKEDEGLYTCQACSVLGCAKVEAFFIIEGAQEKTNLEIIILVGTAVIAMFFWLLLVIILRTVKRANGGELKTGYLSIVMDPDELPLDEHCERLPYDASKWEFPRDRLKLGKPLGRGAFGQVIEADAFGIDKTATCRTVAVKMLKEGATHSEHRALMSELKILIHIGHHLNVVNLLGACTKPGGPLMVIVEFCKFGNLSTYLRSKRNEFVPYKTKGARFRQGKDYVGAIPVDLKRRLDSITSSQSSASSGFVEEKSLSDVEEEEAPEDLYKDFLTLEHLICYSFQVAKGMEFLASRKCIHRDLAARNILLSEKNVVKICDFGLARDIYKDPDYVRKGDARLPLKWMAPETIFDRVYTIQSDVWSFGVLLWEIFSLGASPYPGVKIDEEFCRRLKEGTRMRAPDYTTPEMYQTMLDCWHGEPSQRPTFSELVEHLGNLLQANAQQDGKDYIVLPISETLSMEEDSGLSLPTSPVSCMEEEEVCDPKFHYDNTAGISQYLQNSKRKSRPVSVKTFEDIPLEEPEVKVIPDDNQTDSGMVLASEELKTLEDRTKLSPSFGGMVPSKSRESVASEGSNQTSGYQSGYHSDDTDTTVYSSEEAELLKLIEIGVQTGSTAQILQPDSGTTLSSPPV

CN1CCN(Cc2ccc(NC(=O)c3ccc(Cl)c(C#Cc4cccnc4N)c3)cc2C(F)(F)F)CC1 [Example 1, 3-(2-aminopyridine-3-ethynyl)-4-chloro-N-(4-((4-methylpiperazin-1-yl)methylene)-3-(trifluoromethyl)phenyl)benzamide]
10 nM inhibition ratio KDR (KDR): 45.1
10 nM inhibition ratio RET (RET; 10 nM compound, average of two independent experiments): 87.6
IC50 (RET; measured twice, Mean ± SD): 1.4 ± 0.6 nM
10 nM inhibition ratio FGFR1 (FGFR1): 77.7
AUC0-t ([1]; IV (2 mg/kg)): 2720 ng·h/mL
CLplasma ([1]; IV (2 mg/kg)): 11.9 mL/min/kg
T1/2 ([1]; IV (2 mg/kg)): 6.00 h
Vdss ([1]; IV (2 mg/kg)): 4.88 L/kg
AUC0-t ([1]; PO (10 mg/kg)): 4961 ng·h/mL
Cmax ([1]; PO (10 mg/kg)): 346 ng/mL
T1/2 ([1]; PO (10 mg/kg)): 10.5 h
Tmax ([1]; PO (10 mg/kg)): 5.33 h
F ([1]; PO (10 mg/kg) vs IV (2 mg/kg)): 36.5%
IC50 (Ret (V804M)): 8.4 ± 1.7 nM
inhibition of RET phosphorylation and downstream signaling pathway (Western blot, FIG. 1) [2]: inhibited RET phosphorylation and the downstream signaling pathway
